Test results published in patent US9796733B2, “Imidazo-pyrazine derivatives useful as soluble guanylate cyclase activators” (Merck Sharp & Dohme Corp., priority 2014, dated 2017).

Molecular target: T1, sGC α1/β1 heterodimer (Homo sapiens, UniProt Q02108+Q02153)
T1 construct: expressed in transfected cells; host or cells: CHO-K1 (clone #7, CHO-K1/sGC)
T1 sequence (Q02108 1-690): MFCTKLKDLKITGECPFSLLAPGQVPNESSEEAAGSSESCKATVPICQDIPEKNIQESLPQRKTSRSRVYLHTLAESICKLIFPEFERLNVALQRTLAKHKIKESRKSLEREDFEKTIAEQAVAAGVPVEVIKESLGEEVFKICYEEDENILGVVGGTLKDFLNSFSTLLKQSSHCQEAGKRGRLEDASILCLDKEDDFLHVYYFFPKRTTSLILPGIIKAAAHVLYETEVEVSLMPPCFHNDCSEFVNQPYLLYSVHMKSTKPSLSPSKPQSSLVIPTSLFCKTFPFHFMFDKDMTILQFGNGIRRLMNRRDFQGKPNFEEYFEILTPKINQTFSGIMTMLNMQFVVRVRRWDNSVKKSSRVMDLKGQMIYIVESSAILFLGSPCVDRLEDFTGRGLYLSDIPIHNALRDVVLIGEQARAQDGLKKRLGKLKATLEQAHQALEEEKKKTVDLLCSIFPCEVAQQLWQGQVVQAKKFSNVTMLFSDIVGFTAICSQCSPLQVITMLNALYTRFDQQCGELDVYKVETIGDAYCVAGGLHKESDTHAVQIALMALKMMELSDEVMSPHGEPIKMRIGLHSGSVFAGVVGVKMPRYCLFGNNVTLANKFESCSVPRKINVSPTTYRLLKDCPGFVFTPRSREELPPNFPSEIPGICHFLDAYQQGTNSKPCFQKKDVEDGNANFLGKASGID
T1 sequence (Q02153 1-619): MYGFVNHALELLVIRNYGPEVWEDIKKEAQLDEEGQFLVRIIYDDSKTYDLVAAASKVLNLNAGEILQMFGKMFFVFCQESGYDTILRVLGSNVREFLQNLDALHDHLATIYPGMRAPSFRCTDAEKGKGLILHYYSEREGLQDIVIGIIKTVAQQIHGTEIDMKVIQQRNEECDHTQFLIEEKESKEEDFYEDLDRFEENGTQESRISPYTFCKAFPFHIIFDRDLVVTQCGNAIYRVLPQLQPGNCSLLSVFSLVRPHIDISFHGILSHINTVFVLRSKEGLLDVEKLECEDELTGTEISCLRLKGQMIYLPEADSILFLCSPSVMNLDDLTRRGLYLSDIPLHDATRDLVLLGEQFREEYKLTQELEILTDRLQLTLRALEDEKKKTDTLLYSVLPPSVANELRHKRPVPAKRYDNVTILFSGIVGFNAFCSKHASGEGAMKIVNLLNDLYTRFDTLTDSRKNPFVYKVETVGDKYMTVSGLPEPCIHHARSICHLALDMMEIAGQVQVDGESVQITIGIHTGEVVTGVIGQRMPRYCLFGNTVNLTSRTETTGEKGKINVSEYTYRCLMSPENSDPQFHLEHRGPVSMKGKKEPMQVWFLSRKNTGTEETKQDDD
Experiment: Cell-based sGC functional assay (CASA assay): cGMP generation in CHO-K1/sGC cells, HTRF detection
Conditions: for Emax: CHO-K1, percent activation relative to standard Compound A in CHO-K1/sGC cells, read-out: % Act.; for EC50: inflection point (IP) of cGMP generation in CHO-K1/sGC cells, 4P fit, activity expressed as percentage of Compound A
In short: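 Stable CHO-K1/sGC cells in EBSS buffer with 5 mM MgCl2, 0.05% BSA and 0.5 mM IBMX were incubated with compound (2.5% DMSO final) ±1 μM DETA-NO for 1 hr at 37° C. cGMP was measured by HTRF. Activation is expressed as % of reference HDA Compound A maximum, with IP and max fold induction from a 4P fit.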

Emax [%]	EC50 [nM]	Compound
168	923	COc1ccc(C2(C)C(=O)Nc3nc(-c4cn5ccnc5c(CCC(F)(F)F)n4)nc(N)c32)cc1 (stereo not shown) [Example 192B, 4-amino-5-(4-methoxyphenyl)-5-methyl-2-(8-(3,3,3-trifluoropropyl)imidazo[1,2-a]pyrazin-6-yl)-5H-pyrrolo[2,3-d]pyrimidin-6(7H)-one]
114	312	CC1(c2cc(F)cc(F)c2)C(=O)Nc2nc(-c3cn4ccnc4c(CCC(F)(F)F)n3)nc(N)c21 (stereo not shown) [Example 195B, 4-amino-5-(3,5-difluorophenyl)-5-methyl-2-(8-(3,3,3-trifluoropropyl)imidazo[1,2-a]pyrazin-6-yl)-5H-pyrrolo[2,3-d]pyrimidin-6(7H)-one]
106	267	CC1(c2ccc(OC(F)(F)F)cc2)C(=O)Nc2nc(-c3cn4ccnc4c(CCC(F)(F)F)n3)nc(N)c21 (stereo not shown) [Example 196B, 4-amino-5-methyl-5-(4-(trifluoromethoxy)phenyl)-2-(8-(3,3,3-trifluoropropyl)imidazo[1,2-a]pyrazin-6-yl)-5H-pyrrolo[2,3-d]pyrimidin-6(7H)-one]
96	457	Nc1nc(-c2cn3ccnc3c(CCC(F)(F)F)n2)nc2c1C(c1ccc(Br)cc1)(C1CC1)C(=O)N2 (stereo not shown) [Example 200A, 4-amino-5-(4-bromophenyl)-5-cyclopropyl-2-(8-(3,3,3-trifluoropropyl)imidazo[1,2-a]pyrazin-6-yl)-5H-pyrrolo[2,3-d]pyrimidin-6(7H)-one]
115	1170	CC(C)C1(c2ccc(Cl)cc2)C(=O)Nc2nc(-c3cn4ccnc4c(CCC(F)(F)F)n3)nc(N)c21 (stereo not shown) [Example 203B, 4-amino-5-(4-chlorophenyl)-5-isopropyl-2-(8-(3,3,3-trifluoropropyl)imidazo[1,2-a]pyrazin-6-yl)-5H-pyrrolo[2,3-d]pyrimidin-6(7H)-one]
110	14	CC1(c2ccc(Cl)c(F)c2)C(=O)Nc2nc(-c3cn4ccnc4c(CCCC(F)(F)F)n3)nc(N)c21 (stereo not shown) [Example 204B, 4-amino-5-(4-chloro-3-fluorophenyl)-5-methyl-2-(8-(4,4,4-trifluorobutyl)imidazo[1,2-a]pyrazin-6-yl)-5H-pyrrolo[2,3-d]pyrimidin-6(7H)-one]
116	21	CC1(c2ccc(Cl)cc2)C(=O)Nc2nc(-c3cn4ccnc4c(CCCC(F)(F)F)n3)nc(N)c21 (stereo not shown) [Example 206A, 4-amino-5-(4-chlorophenyl)-5-methyl-2-(8-(4,4,4-trifluorobutyl)imidazo[1,2-a]pyrazin-6-yl)-5H-pyrrolo[2,3-d]pyrimidin-6(7H)-one]
83	87	COc1ccc(C2(C)C(=O)Nc3nc(-c4cn5ccnc5c(CCCC(F)(F)F)n4)nc(N)c32)nc1 (stereo not shown) [Example 212B, 4-amino-5-(5-methoxypyridin-2-yl)-5-methyl-2-(8-(4,4,4-trifluorobutyl)imidazo[1,2-a]pyrazin-6-yl)-5H-pyrrolo[2,3-d]pyrimidin-6(7H)-one]
77	153	CCOc1ccc(C2(C)C(=O)Nc3nc(-c4cn5ccnc5c(CCC(F)(F)C(F)(F)F)n4)nc(N)c32)nc1 (stereo not shown) [Example 224A, 4-amino-5-(5-ethoxypyridin-2-yl)-5-methyl-2-(8-(3,3,4,4,4-pentafluorobutyl)imidazo [1,2-a]pyrazin-6-yl)-5H-pyrrolo[2,3-d]pyrimidin-6(7H)-one]
124	287	CC1(c2ccccn2)C(=O)Nc2nc(-c3cn4ccnc4c(CCC(F)(F)C(F)(F)F)n3)nc(N)c21 (stereo not shown) [Example 226A, 4-amino-5-methyl-2-(8-(3,3,4,4,4-pentafluorobutyl)imidazo [1,2-a]pyrazin-6-yl)-5-(pyridin-2-yl)-5H-pyrrolo[2,3-d]pyrimidin-6(7H)-one]
111	249	CC1(c2ccc(C3CC3)cn2)C(=O)Nc2nc(-c3cn4ccnc4c(CCC(F)(F)C(F)(F)F)n3)nc(N)c21 (stereo not shown) [Example 227B, 4-amino-5-(5-cyclopropylpyridin-2-yl)-5-methyl-2-(8-(3,3,4,4,4-pentafluorobutyl)imidazo [1,2-a]pyrazin-6-yl)-5H-pyrrolo[2,3-d]pyrimidin-6(7H)-one]
122	26	COc1ccc(C2(C)C(=O)Nc3nc(-c4cn5ccnc5c(CCC(F)(F)C(F)(F)F)n4)nc(N)c32)cc1 (stereo not shown) [Example 229B, 4-amino-5-(4-methoxyphenyl)-5-methyl-2-(8-(3,3,4,4,4-pentafluorobutyl)imidazo [1,2-a]pyrazin-6-yl)-5H-pyrrolo[2,3-d]pyrimidin-6(7H)-one]
117	32	Cc1ccc(C2(C)C(=O)Nc3nc(-c4cn5ccnc5c(CCC(F)(F)C(F)(F)F)n4)nc(N)c32)cc1 (stereo not shown) [Example 230B, 4-amino-5-methyl-2-(8-(3,3,4,4,4-pentafluorobutyl)imidazo [1,2-a]pyrazin-6-yl)-5-(p-tolyl)-5H-pyrrolo[2,3-d]pyrimidin-6(7H)-one]
91	35	COc1ccc(C2(C)C(=O)Nc3nc(-c4cn5ccnc5c(CCC(F)(F)C(F)(F)F)n4)nc(N)c32)cn1 (stereo not shown) [Example 236B, 4-amino-5-(6-methoxypyridin-3-yl)-5-methyl-2-(8-(3,3,4,4,4-pentafluorobutyl)imidazo [1,2-a]pyrazin-6-yl)-5H-pyrrolo[2,3-d]pyrimidin-6(7H)-one]
119	53	CC1(c2ccc(C(F)(F)F)cc2)C(=O)Nc2nc(-c3cn4ccnc4c(CCC(F)(F)C(F)(F)F)n3)nc(N)c21 (stereo not shown) [Example 237B, 4-amino-5-methyl-2-(8-(3,3,4,4,4-pentafluorobutyl)imidazo [1,2-a]pyrazin-6-yl)-5-(4-(trifluoromethyl)phenyl)-5H-pyrrolo[2,3-d]pyrimidin-6(7H)-one]
99	58	CC(C)Oc1ccc(C2(C)C(=O)Nc3nc(-c4cn5ccnc5c(CCC(F)(F)C(F)(F)F)n4)nc(N)c32)cn1 (stereo not shown) [Example 241B, 4-amino-5-(6-isopropoxypyridin-3-yl)-5-methyl-2-(8-(3,3,4,4,4-pentafluorobutyl)imidazo [1,2-a]pyrazin-6-yl)-5H-pyrrolo[2,3-d]pyrimidin-6(7H)-one]
133	127	CCc1ccc(C2(C)C(=O)Nc3nc(-c4cn5ccnc5c(CCC(F)(F)C(F)(F)F)n4)nc(N)c32)nc1 (stereo not shown) [Example 242B, 4-amino-5-(5-ethylpyridin-2-yl)-5-methyl-2-(8-(3,3,4,4,4-pentafluorobutyl)imidazo [1,2-a]pyrazin-6-yl)-5H-pyrrolo[2,3-d]pyrimidin-6(7H)-one]
88	82	COc1ccc(C2(C)C(=O)Nc3nc(-c4cn5ccnc5c(CCC(F)(F)C(F)(F)F)n4)nc(N)c32)nc1 (stereo not shown) [Example 248B, 4-amino-5-(5-methoxypyridin-2-yl)-5-methyl-2-(8-(3,3,4,4,4-pentafluorobutyl)imidazo [12-a]pyrazin-6-yl)-5H-pyrrolo[2,3-d]pyrimidin-6(7H)-one]
121	175	Cc1ccc(C2(C)C(=O)Nc3nc(-c4cn5ccnc5c(CCC(F)(F)C(F)(F)F)n4)nc(N)c32)nn1 (stereo not shown) [Example 252B, 4-amino-5-methyl-5-(6-methylpyridazin-3-yl)-2-(8-(3,3,4,4,4-pentafluorobutyl)imidazo [1,2-a]pyrazin-6-yl)-5H-pyrrolo[2,3-d]pyrimidin-6(7H)-one]
86	24	CC1(c2ccccc2)C(=O)Nc2nc(-c3cn4c(Cl)cnc4c(CCC(F)(F)C(F)(F)F)n3)nc(N)c21 (stereo not shown) [Example 256B, 4-amino-2-(3-chloro-8-(3,3,4,4,4-pentafluorobutyl)imidazo [1,2-a]pyrazin-6-yl)-5-methyl-5-phenyl-5H-pyrrolo[2,3-d]pyrimidin-6(7H)-one]
